The values below come from ChEMBL document CHEMBL1127929, “The synthesis and serine -lactamase inhibitory activity of some phosphonamidate analogues of dipeptides” (1994).

≈ marks a conversion by molar mass, not a printed value. Where only a bound is given, the exact number is not on record here.

Assay [1] addresses Beta-lactamase (Enterobacter cloacae) (UniProt P05364). Put plainly: Minimum inhibitory concentration of 10 ug/ml compound in combination with amoxycillin against Enterobacter cloacae N-1 organism. The format is functional.
Assay [2] has the same target. Put plainly: Compound was tested for the inhibitory activity against Enterobacter cloacae P99 serine beta-lactamase.
The target of assay [3] is Beta-lactamase (Staphylococcus aureus) (UniProt P00807). Put plainly: Inhibitory activity against Staphylococcus aureus penicillinase.
Chain of Beta-lactamase (Staphylococcus aureus) (P00807 whole entry): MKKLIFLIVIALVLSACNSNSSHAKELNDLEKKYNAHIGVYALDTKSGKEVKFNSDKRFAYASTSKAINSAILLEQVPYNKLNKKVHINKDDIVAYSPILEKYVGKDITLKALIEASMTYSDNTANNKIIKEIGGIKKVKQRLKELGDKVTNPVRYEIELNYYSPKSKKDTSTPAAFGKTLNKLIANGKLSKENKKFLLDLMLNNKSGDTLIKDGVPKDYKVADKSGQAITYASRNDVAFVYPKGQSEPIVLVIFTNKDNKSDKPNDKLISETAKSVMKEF
Assay [4] deals with Beta-lactamase TEM (Escherichia coli) (UniProt P62593). Briefly: Inhibitory activity against Escherichia coli TEM-1 serine beta-lactamase.
Chain of Beta-lactamase TEM (Escherichia coli) (P62593 whole entry): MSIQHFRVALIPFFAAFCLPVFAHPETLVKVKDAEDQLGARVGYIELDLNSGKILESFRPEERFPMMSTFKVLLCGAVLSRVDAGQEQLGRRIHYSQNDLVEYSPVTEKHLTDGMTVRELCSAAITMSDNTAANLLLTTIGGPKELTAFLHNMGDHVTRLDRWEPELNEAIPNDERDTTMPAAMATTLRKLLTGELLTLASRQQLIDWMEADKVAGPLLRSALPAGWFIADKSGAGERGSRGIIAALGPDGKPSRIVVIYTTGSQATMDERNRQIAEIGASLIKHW
In assay [5] the test system is Staphylococcus aureus. Put plainly: Minimum inhibitory concentration of 10 ug/ml compound in combination with amoxycillin against Staphylococcus aureus MB9 organism. The format is functional.
Assay [6] relates to Proteus mirabilis. Put plainly: Compound was tested for the inhibitory activity against Proteus mirabilis carbenicillinase.
The target of assay [7] is T1, SHV-5 extended spectrum beta-lactamase (Escherichia coli) (UniProt Q6REX6).
T1 sequence (whole entry): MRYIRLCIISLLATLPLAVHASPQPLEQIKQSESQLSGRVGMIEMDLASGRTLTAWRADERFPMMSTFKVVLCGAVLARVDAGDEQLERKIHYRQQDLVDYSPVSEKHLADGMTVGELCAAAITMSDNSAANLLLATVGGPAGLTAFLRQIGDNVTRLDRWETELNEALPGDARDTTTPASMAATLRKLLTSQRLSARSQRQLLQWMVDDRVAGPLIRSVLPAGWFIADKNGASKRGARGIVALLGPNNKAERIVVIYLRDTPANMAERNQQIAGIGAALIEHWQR
Put plainly: Compound was tested for the inhibitory activity against Escherichia coli SHV-5 serine beta-lactamase.

Assay [8] concerns the target Beta-lactamase OXA-1 (Escherichia coli) (UniProt P13661). Briefly: Compound was tested for the inhibitory activity against Escherichia coli OXA-1 serine beta-lactamase.
In assay [9] the target is T2, Beta-lactamase PSE-4 (Pseudomonas aeruginosa) (UniProt P16897).
T2 sequence (whole entry): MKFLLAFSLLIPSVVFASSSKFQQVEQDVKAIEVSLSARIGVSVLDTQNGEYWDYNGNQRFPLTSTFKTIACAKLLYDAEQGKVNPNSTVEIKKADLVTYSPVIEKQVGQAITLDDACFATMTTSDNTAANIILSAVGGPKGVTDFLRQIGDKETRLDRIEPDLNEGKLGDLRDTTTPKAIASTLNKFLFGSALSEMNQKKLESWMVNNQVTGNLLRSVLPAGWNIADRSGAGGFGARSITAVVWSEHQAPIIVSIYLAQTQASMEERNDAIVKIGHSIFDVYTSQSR
Put plainly: Compound was tested for the inhibitory activity against Pseudomonas aeruginosa PSE-4 serine beta-lactamase.

For assay [10], the target named is Beta-lactamase (Enterobacter cloacae) (UniProt P05364). Briefly: Minimum inhibitory concentration of 10 ug/ml compound in combination with amoxycillin against Enterobacter cloacae N-1 organism,. The format is functional.
Chain of Beta-lactamase (Enterobacter cloacae) (P05364 21-381 limits assumed): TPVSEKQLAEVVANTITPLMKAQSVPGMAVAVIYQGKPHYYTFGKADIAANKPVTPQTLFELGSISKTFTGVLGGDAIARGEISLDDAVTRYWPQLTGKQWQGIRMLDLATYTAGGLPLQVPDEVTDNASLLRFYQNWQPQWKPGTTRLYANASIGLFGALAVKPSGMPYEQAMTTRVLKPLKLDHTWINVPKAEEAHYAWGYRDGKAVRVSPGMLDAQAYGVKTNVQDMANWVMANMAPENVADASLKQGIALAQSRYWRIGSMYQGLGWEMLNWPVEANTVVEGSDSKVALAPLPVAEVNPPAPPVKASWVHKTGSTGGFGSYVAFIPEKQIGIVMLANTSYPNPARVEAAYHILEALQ
In assay [11] the test system is Staphylococcus aureus. Briefly: Minimum inhibitory concentration of 4 ug/ml compound in combination with amoxycillin against Staphylococcus aureus MB9 organism. Format: functional.
Assay [12] has as its target Beta-lactamase TEM (Escherichia coli) (UniProt P62593).
Description: Antibacterial activity against Escherichia coli E96P organism, activity expressed as MIC(minimum inhibitory concentration)
Assay [13] concerns the target Beta-lactamase (Enterobacter cloacae) (UniProt P05364).
Description: Antibacterial activity against Enterobacter cloacae N-1 organism, activity expressed as MIC(minimum inhibitory concentration)
The test system of assay [14] is Staphylococcus aureus. Briefly: Antibacterial activity against Staphylococcus aureus MB9 organism, activity expressed as MIC(minimum inhibitory concentration). The format is functional.
Assay [15] deals with Beta-lactamase (Enterobacter cloacae) (UniProt P05364). This is another data set of the same source.
Description: Minimum inhibitory concentration of 4 ug/ml compound in combination with amoxycillin against Enterobacter cloacae N-1 organism
Assay [16] concerns the target Beta-lactamase TEM (Escherichia coli) (UniProt P62593). Briefly: Minimum inhibitory concentration of 4 ug/ml compound in combination with amoxycillin against Escherichia coli E96P organism. Format: functional.
Assay [17] relates to Staphylococcus aureus. Briefly: Minimum inhibitory concentration against Staphylococcus aureus MB9 organism. The format is functional.
Assay [18] concerns the target Beta-lactamase (Enterobacter cloacae) (UniProt P05364). This is another data set of the same source.
Description: Minimum inhibitory concentration against Enterobacter cloacae N-1 organism

Chain of Beta-lactamase OXA-1 (Escherichia coli) (P13661 whole entry): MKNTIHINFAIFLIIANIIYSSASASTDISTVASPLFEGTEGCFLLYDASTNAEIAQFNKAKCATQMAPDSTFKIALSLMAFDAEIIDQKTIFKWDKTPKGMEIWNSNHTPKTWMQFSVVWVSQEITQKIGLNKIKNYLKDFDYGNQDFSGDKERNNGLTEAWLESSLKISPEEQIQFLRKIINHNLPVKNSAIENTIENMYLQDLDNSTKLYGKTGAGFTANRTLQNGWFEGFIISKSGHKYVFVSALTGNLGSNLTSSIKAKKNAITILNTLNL

Turning to `CC1(C)S[C@@H]2[C@H](NC(=O)C(N)c3ccc(O)cc3)C(=O)N2[C@H]1C(=O)O.O=C(O)CC(NP(=O)(O)CNC(=O)OCc1ccccc1)c1ccccc1` (stereo unspecified), the MIC in [1] turned out to be 16 µg/mL.
Turning to `COP(=O)(CNC(=O)OCc1ccccc1)N1CSC(C)(C)[C@@H]1C(=O)O` (stereo partly specified), the ID50 in assay [2], in [3] and in [4] was greater than 100 µM in each case.
As for `CC1(C)S[C@@H]2[C@H](NC(=O)C(N)c3ccc(O)cc3)C(=O)N2[C@H]1C(=O)O.O=C([O-])CCNP(=O)([O-])CNC(=O)OCc1ccccc1.[Li+].[Li+]` (stereo partly specified), the MIC in assay [5] was determined as 32 µg/mL.
For `O=C(NCP(=O)(O)N[C@@H](Cc1ccccc1)C(=O)O)OCc1ccccc1`, the ID50 was greater than 100 µM in assay [6]; greater than 100 µM in assay [7]; 0.75 µM in [2]; 60 µM in assay [8]; greater than 33 µM in assay [3]; greater than 50 µM in [4]. The same compound yielded an ID50 in assay [9] of 15 µM.
On to `CC1(C)S[C@@H]2[C@H](NC(=O)C(N)c3ccc(O)cc3)C(=O)N2[C@H]1C(=O)O.O=C(O)CNP(=O)(O)CNC(=O)OCc1ccccc1` (stereo partly specified), for which the MIC in [10] amounted to 32 µg/mL.
`CC1(C)S[C@@H]2[C@H](NC(=O)[C@H](N)c3ccc(O)cc3)C(=O)N2[C@H]1C(=O)O.O=C(O)[C@H]1/C(=C/CO)O[C@@H]2CC(=O)N21` [listing 1 of 2 here]: the MIC in assay [11] was 0.12 µg/mL.
Regarding `O=C(O)[C@H]1/C(=C/CO)O[C@@H]2CC(=O)N21` [CLAVULANIC ACID], the ID50 is 0.51 µM in [6]; 0.013 µM in [7]; 310 µM in assay [2]; 3.4 µM in [8]; 0.38 µM in assay [3]; 0.315 µM in [4]. In assay [9], this compound showed an ID50 of 0.235 µM. Besides, the MIC in assay [12], in assay [13] and in assay [14] was 32 µg/mL (≈ 161 µM) each time.
Consider `O=C(O)CCNP(=O)(O)CNC(=O)OCc1ccccc1`, for which the ID50 in assay [6] is greater than 100 µM; in assay [7], 33 µM; in [2], 0.87 µM; in assay [8], 14 µM; in [3], greater than 25 µM; in assay [4], greater than 50 µM. In assay [9], the ID50 was greater than 100 µM.
Regarding `CC1(C)S[C@@H]2[C@H](NC(=O)[C@H](N)c3ccc(O)cc3)C(=O)N2[C@H]1C(=O)O.O=C(O)[C@H]1/C(=C/CO)O[C@@H]2CC(=O)N21` [listing 2 of 2 here], the figures for the MIC in assay [15] and in [16] were 256 µg/mL and 16 µg/mL, respectively.
On to `CC1(C)S[C@@H]2[C@H](NC(=O)C(N)c3ccc(O)cc3)C(=O)N2[C@H]1C(=O)O.O=C(NCP(=O)([O-])N[C@@H](Cc1ccccc1)C(=O)[O-])OCc1ccccc1.[Li+].[Li+]`, for which the MIC in assay [5] was determined as 64 µg/mL.
Still for that read-out and setting: next, `CC1(C)S[C@@H]2[C@H](NC(=O)C(N)c3ccc(O)cc3)C(=O)N2[C@H]1C(=O)O.O=C([O-])CC(NP(=O)([O-])CNC(=O)OCc1ccccc1)c1ccccc1.[Li+].[Li+]` (stereo unspecified): 8 µg/mL.
Consider `CC1(C)S[C@@H]2[C@H](NC(=O)C(N)c3ccc(O)cc3)C(=O)N2[C@H]1C(=O)O.O=C(O)CCNP(=O)(O)CNC(=O)OCc1ccccc1` (stereo partly specified), for which the MIC in [1] amounted to 44 µg/mL.
In the case of `COP(=O)(CNC(=O)OCc1ccccc1)N1CCC[C@@H]1C(=O)O` (stereo partly specified), the ID50 is 67 µM in assay [2], greater than 100 µM in [3] and greater than 100 µM in assay [4].
`CC1(C)S[C@@H]2[C@H](NC(=O)C(N)c3ccc(O)cc3)C(=O)N2[C@H]1C(=O)O.O=C(NCP(=O)(O)NC(C(=O)O)c1ccccc1)OCc1ccccc1` (stereo unspecified): in assay [1], the MIC amounted to 32 µg/mL.
Still for that read-out and setting: the result for `CC1(C)S[C@@H]2[C@H](NC(=O)C(N)c3ccc(O)cc3)C(=O)N2[C@H]1C(=O)O.O=C(NCP(=O)(O)N[C@@H](Cc1ccccc1)C(=O)O)OCc1ccccc1` reads 128 µg/mL; that for `CC1(C)S[C@@H]2[C@H](NC(=O)C(N)c3ccc(O)cc3)C(=O)N2[C@H]1C(=O)O.O=C(NCP(=O)(O)N[C@H](Cc1ccccc1)C(=O)O)OCc1ccccc1`, 128 µg/mL.
In the case of `CC1(C)S[C@@H]2[C@H](NC(=O)C(N)c3ccc(O)cc3)C(=O)N2[C@H]1C(=O)O.O=C(NCP(=O)([O-])NC(C(=O)[O-])c1ccccc1)OCc1ccccc1.[Li+].[Li+]` (stereo unspecified), in assay [5], the MIC is 64 µg/mL.
Consider `CC1(C)S[C@@H]2[C@H](NC(=O)[C@H](N)c3ccc(O)cc3)C(=O)N2[C@H]1C(=O)O` [AMOXICILLIN], for which the MIC in [17] worked out at 256 µg/mL (≈ 701 µM).
Consider `CC1(C)S[C@@H]2[C@H](NC(=O)C(N)c3ccc(O)cc3)C(=O)N2[C@H]1C(=O)O.O=C([O-])CNP(=O)([O-])CNC(=O)OCc1ccccc1.[Li+].[Li+]` (stereo partly specified), for which the MIC in [5] was determined as 64 µg/mL.
In the case of `O=C(O)CNCP(=O)(O)CNC(=O)OCc1ccccc1`, the ID50 in assay [2], in [3] and in [4] was greater than 100 µM in each case.
For `O=C(NCP(=O)(O)N[C@H](Cc1ccccc1)C(=O)O)OCc1ccccc1`, the ID50 is greater than 100 µM in [6]; greater than 100 µM in [7]; 3.8 µM in [2]; greater than 100 µM in assay [8]; greater than 100 µM in assay [3]; greater than 100 µM in assay [4]. The compound further displayed an ID50 in assay [9] greater than 100 µM.
As to `CC1(C)S[C@@H]2[C@H](NC(=O)C(N)c3ccc(O)cc3)C(=O)N2[C@H]1C(=O)O.O=C(NCP(=O)([O-])N[C@H](Cc1ccccc1)C(=O)[O-])OCc1ccccc1.[Li+].[Li+]`, in [5], the MIC came out at 64 µg/mL.
On to `O=C(NCP(=O)(O)N[C@@H](C(=O)O)c1ccccc1)OCc1ccccc1`, for which the ID50 in assay [6] was greater than 100 µM; in [7], greater than 100 µM; in [2], 4.16 µM; in assay [8], greater than 100 µM; in [3] it was greater than 100 µM; in assay [4] it was greater than 100 µM. The compound further gave an ID50 in assay [9] greater than 100 µM.
On to `COP(=O)(CNC(=O)OCc1ccccc1)N1CCC[C@H]1C(=O)O` (stereo partly specified), for which the ID50 in [2] is 54 µM; in assay [3], greater than 100 µM; in assay [4], greater than 100 µM.
Take `O=C(O)CC(NP(=O)(O)CNC(=O)OCc1ccccc1)c1ccccc1` (stereo unspecified): the ID50 in [6] was greater than 100 µM; in assay [7], 63 µM; in [2] it was 0.87 µM; in assay [8], 46 µM; in assay [3], greater than 35 µM; in [4] it was greater than 50 µM. Also, in [9], the ID50 came out at 83 µM.
Turning to `O=C(O)CNP(=O)(O)CNC(=O)OCc1ccccc1`, the ID50 in assay [6] was greater than 100 µM; in assay [7], greater than 100 µM; in assay [2] it was 2.29 µg/mL; in assay [8] it was 30 µM; in assay [3] it was greater than 100 µg/mL; in assay [4], greater than 100 µg/mL. The ID50 in [9] was greater than 100 µM.
In [18], `CC1(C)S[C@@H]2[C@H](NC(=O)[C@H](N)c3ccc(O)cc3)C(=O)N2[C@H]1C(=O)O` had an MIC of 256 µg/mL (≈ 701 µM).
